This test relates to Gaeumannomyces graminis var. tritici (Ggt). Nature of the test: In vitro Assay: mycelial growth of Ggt on minimal media agar plates containing test compound. Type of test: cell-based. The settings on record: dark, 19-20° C., 4 to 5 days, diameter of mycelial growth; for inhibition at 0.1 ppm / inhibition at 1 ppm / inhibition at 10 ppm: Gaeumannomyces graminis; for inhibition at 0.1 ppm: read-out: In vitro (ppm) 0.1, Percent Inhibition; for inhibition at 1 ppm: read-out: In vitro (ppm) 1, Percent Inhibition; for inhibition at 10 ppm: read-out: In vitro (ppm) 10, Percent Inhibition. In a few lines:
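Ggt mycelial diameter read after 4 to 5 days in darkness at 19-20° C, from three 4-mm plugs placed on Czapek Dox minimal agar containing test compound delivered in acetone. Inhibition expressed as percent versus untreated plates, plug size (4 mm) subtracted from both.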

Some results are limits rather than exact numbers.

For `C[Si](C)(C)c1cccc(Cl)c1C(=O)Nc1ccccc1C1CCCC1` [Example 158, 2-Chloro-N-(2-cyclopentylphenyl)-6-(trimethylsilyl)benzamide], the inhibition (in general, how much of the control response was suppressed) at 0.1 ppm (0.1 ppm in minimal media agar) was found to be 2%. In addition, the inhibition at 1 ppm (1 ppm in minimal media agar) was 33%. The inhibition at 10 ppm (10 ppm in minimal media agar) came to 44%.
For `CC(NC(=O)c1c(Cl)cccc1[Si](C)(C)C)c1ccccc1` (stereo not drawn) [Example 161, 2-Chloro-N-(1-phenylethyl)-6-(trimethylsilyl)benzamide] the same measures were 22%, 17% and 61%.
For `CC(C)CNC(=O)c1c(Cl)cccc1[Si](C)(C)C` [Example 162, 2-Chloro-N-(2-methylpropyl)-6-(trimethylsilyl)benzamide] the same measures were 3%, less than 0% and 57%.
For `C[Si](C)(C)c1cccc(Cl)c1C(=O)NC1CCC1` [Example 163, 2-Chloro-N-cyclobutyl-6-(trimethylsilyl)benzamide] the same measures were 24%, 85% and 100%.
With `CC(C)N(C)C(=O)c1c(Cl)cccc1[Si](C)(C)C` [Example 164, 2-Chloro-N-methyl-N-(1-methylethyl)-6-(trimethylsilyl)benzamide], for the setting “0.1 ppm in minimal media agar”, the inhibition at 0.1 ppm was 3%. The inhibition at 1 ppm (1 ppm in minimal media agar) stood at 3%. In addition, the inhibition at 10 ppm (10 ppm in minimal media agar) turned out to be 70%.
For `CC(C)N(O)C(=O)c1c(Cl)cccc1[Si](C)(C)C.[Fe+3].[OH-].[OH-].[OH-]` [Example 168, 2-Chloro-N-hydroxy-N-(1-methylethyl)-6-(trimethylsilyl)benzamide, compd. with iron hydroxide (1:1)], where the note is “0.1 ppm in minimal media agar”, the “In vitro (ppm) 0.1, Percent Inhibition” value amounted to 57%. For the same compound, the “In vitro (ppm) 1, Percent Inhibition” value (1 ppm in minimal media agar) was determined as 96%. Moreover, where the note is “10 ppm in minimal media agar”, the “In vitro (ppm) 10, Percent Inhibition” value is on record as 100%.
As to `CCN=C(SCC)c1c(Cl)cccc1[Si](C)(C)C` [Example 169, 2-Chloro-N-ethyl-6-(trimethylsilyl)benzenecarboximidothioic acid, ethyl ester], the inhibition at 0.1 ppm (0.1 ppm in minimal media agar) is less than 0%. For the same compound, for the setting “1 ppm in minimal media agar”, the inhibition at 1 ppm was 31%. Besides, the inhibition at 10 ppm (10 ppm in minimal media agar) is 100%.
For `C[Si](C)(C)c1cccc(Cl)c1C(=O)NC(c1ccccc1)n1nnc2ccccc21` (stereo not drawn) [Example 170, N-(1H-Benzotriazol-1-ylphenylmethyl)-2-chloro-6-(trimethylsilyl)benzamide] the same measures were 12%, 9% and 63%.
For `CC(C)NC(=O)NC(=O)c1c(Cl)cccc1[Si](C)(C)C` [Example 173, 2-Chloro-N-(isopropylaminocarbonyl)-6-(trimethylsilyl)benzamide] the same measures were 4%, 12% and 92%.
For `C[Si](C)(C)c1cccc(Cl)c1NC(=O)C(Cl)(Cl)Cl` [Example 175, 2,2,2-Trichloro-N-[2-chloro-6-(trimethylsilyl)phenyl]acetamide] the same measures were 35%, 48% and 60%.
As for `CCNC(=O)c1c(Br)cccc1[Si](C)(C)C` [Example 176, 2-Bromo-N-ethyl-6-(trimethylsilyl)benzamide], the inhibition at 0.1 ppm (0.1 ppm in minimal media agar) stood at 83%. Besides, the inhibition at 1 ppm (1 ppm in minimal media agar) amounted to 97%. The inhibition at 10 ppm (10 ppm in minimal media agar) is 97%.
With `CCNC(=O)c1c([Si](C)(C)C)csc1Cl` [Example 177, 2-Chloro-N-ethyl-4-(trimethylsilyl)-3-thiophenecarboxamide], the inhibition at 0.1 ppm (0.1 ppm in minimal media agar) came to 11%. Further, the inhibition at 1 ppm (1 ppm in minimal media agar) turned out to be 19%. Further, the inhibition at 10 ppm (10 ppm in minimal media agar) was 100%.
For `CCNC(=O)n1cccc1[Si](C)(C)C` [Example 178, N-Ethyl-2-(trimethylsilyl)-1H-pyrrole-1-carboxamide] the same measures were less than 0%, 15% and 54%.
For `CCNC(=O)c1c(Cl)cccc1[Si](C)(C)C1CCCCC1` [Example 181, 2-Chloro-6-(cyclohexyldimethylsilyl)-N-ethylbenzamide] the same measures were 12%, 33% and 58%.
For `CCCCCCCC[Si](C)(C)c1cccc(Cl)c1C(=O)NCC` [Example 182, 2-Chloro-6-(dimethyloctylsilyl)-N-ethylbenzamide] the same measures were 30%, 58% and 73%.
Turning to `CCNC(=O)c1c(Cl)cccc1[Si](C)(C)C1CC2CCC1C2` (stereo not drawn) [Example 183, 2-(Bicyclo[2.2.1]Hept-2-yldimethylsilyl)-6-chloro-N-ethylbenzamide], the inhibition at 0.1 ppm (0.1 ppm in minimal media agar) was found to be 24%. Besides, the inhibition at 1 ppm (1 ppm in minimal media agar) turned out to be 35%. In addition, the inhibition at 10 ppm (10 ppm in minimal media agar) stood at 56%.
For `CCNC(=O)c1c(Cl)cccc1[Si](C)(C)c1ccccc1` [Example 184, 2-Chloro-6-(dimethylphenylsilyl)-N-ethylbenzamide] the same measures were less than 0%, 11% and 83%.
For `CCNC(=O)c1c(Cl)cccc1[Si](C)(C)C(C)(C)C` [Example 185, 2-Chloro-6-[(1,1-dimethylethyl)dimethylsilyl]-N-ethylbenzamide] the same measures were 48%, 56% and 72%.
Turning to `CCN(C(=O)c1ccccc1C(C)(C)C)C(OC)C(C)(C)C` (stereo not drawn) [Example 186, 2-(1,1-Dimethylethyl)-N-ethyl-N-(1-methoxy-2,2-dimethylpropyl)benzamide], where the note is “0.1 ppm in minimal media agar”, the inhibition at 0.1 ppm is less than 0%. Moreover, the inhibition at 1 ppm (1 ppm in minimal media agar) was less than 0%. For the same compound, the inhibition at 10 ppm (10 ppm in minimal media agar) was found to be 67%.
As for `CCN(C)C(=O)c1c(Cl)cccc1N(C)C(C)(C)C` [Example 189, 2-Chloro-6-[(1,1-dimethylethyl)methylamino]-N-ethyl-N-methylbenzamide], the inhibition at 0.1 ppm (0.1 ppm in minimal media agar) was determined as 4%. Further, the inhibition at 1 ppm (1 ppm in minimal media agar) is 13%. In addition, where the note is “10 ppm in minimal media agar”, the inhibition at 10 ppm was determined as 65%.
For `CCNC(=O)c1c(Cl)cccc1N(C)C(C)(C)C` [Example 190, 2-Chloro-6-[(1,1-dimethylethyl)methylamino]-N-ethylbenzamide] the same measures were 24%, 76% and 80%.
For `CCNC(=O)c1c(Cl)cc(C=O)cc1[Si](C)(C)C` [Example 193, 2-Chloro-N-ethyl-4-formyl-6-(trimethylsilyl)benzamide] the same measures were 35%, 30% and 57%.
Regarding `CCNC(=O)c1c(F)cccc1[S+]([O-])C(C)(C)C` (stereo not drawn) [Example 194, 2-[(1,1-Dimethylethyl)sulfinyl]-N-ethyl-6-fluorobenzamide], for the setting “0.1 ppm in minimal media agar”, the inhibition at 0.1 ppm is 82%. Moreover, the inhibition at 1 ppm (1 ppm in minimal media agar) was 100%. Moreover, for the setting “10 ppm in minimal media agar”, the inhibition at 10 ppm was found to be 100%.
On to `CCN(CC)C(=O)c1c(F)cccc1[S+]([O-])C(C)(C)C` (stereo not drawn) [Example 195, N,N-Diethyl 2-[(1,1-dimethylethyl)sulfinyl]-6-fluorobenzamide], for which the inhibition at 0.1 ppm (0.1 ppm in minimal media agar) worked out at 35%. For the same compound, for the setting “1 ppm in minimal media agar”, the inhibition at 1 ppm came out at 29%. Besides, the inhibition at 10 ppm (10 ppm in minimal media agar) turned out to be 56%.
For `CC(C)NC(=O)c1c(F)cccc1[S+]([O-])C(C)(C)C` (stereo not drawn) [Example 196, N-(1-Methylethyl)-2-[(1,1-dimethylethyl)sulfinyl]-6-fluorobenzamide] the same measures were 3%, 56% and 100%.
For `CCNC(=O)c1c([Si](C)(C)C)ccc(Cl)c1Cl` [Example 203, 2,3-Dichloro-N-ethyl-6-(trimethylsilyl)benzamide] the same measures were 79%, 84% and 91%.
For `CN(C)NC(=O)c1c([Si](C)(C)C)ccc(Cl)c1Cl` [Example 205, 2,3-Dichloro-6-(trimethylsilyl)benzoic acid, 2,2-dimethylhydrazide] the same measures were 5%, 47% and 81%.
In the case of `C#CCNC(=O)c1c(Br)cccc1[Si](C)(C)C` [Example 206, 2-Bromo-N-2-propynyl-6-(trimethylsilyl)benzamide], the inhibition at 0.1 ppm (0.1 ppm in minimal media agar) amounted to 86%. In addition, the inhibition at 1 ppm (1 ppm in minimal media agar) is 97%. For the same compound, under “10 ppm in minimal media agar”, the inhibition at 10 ppm is 100%.
For `CCNC(=O)c1c(I)cccc1[Si](C)(C)C` [Example 207, N-Ethyl-2-iodo-6-(trimethylsilyl)benzamide] the same measures were 31%, 90% and 97%.
For `C#CCNC(=O)c1c(I)cccc1[Si](C)(C)C` [Example 208, 2-Iodo-N-2-propynyl-6-(trimethylsilyl)benzamide] the same measures were less than 0%, 83% and 97%.
For `C[Si](C)(C)c1cccc(I)c1C(=O)NC1CC1` [Example 209, N-Cyclopropyl-2-iodo-6-(trimethylsilyl)benzamide] the same measures were 28%, 90% and 100%.
